ChEMBL document CHEMBL1275370, “The binding of β-d-glucopyranosyl-thiosemicarbazone derivatives to glycogen phosphorylase: A new class of inhibitors” (Bioorg Med Chem, 2010)

Molecular target: T1, Glycogen phosphorylase, muscle form (Oryctolagus cuniculus, UniProt P00489)
T1 sequence (P00489 whole entry): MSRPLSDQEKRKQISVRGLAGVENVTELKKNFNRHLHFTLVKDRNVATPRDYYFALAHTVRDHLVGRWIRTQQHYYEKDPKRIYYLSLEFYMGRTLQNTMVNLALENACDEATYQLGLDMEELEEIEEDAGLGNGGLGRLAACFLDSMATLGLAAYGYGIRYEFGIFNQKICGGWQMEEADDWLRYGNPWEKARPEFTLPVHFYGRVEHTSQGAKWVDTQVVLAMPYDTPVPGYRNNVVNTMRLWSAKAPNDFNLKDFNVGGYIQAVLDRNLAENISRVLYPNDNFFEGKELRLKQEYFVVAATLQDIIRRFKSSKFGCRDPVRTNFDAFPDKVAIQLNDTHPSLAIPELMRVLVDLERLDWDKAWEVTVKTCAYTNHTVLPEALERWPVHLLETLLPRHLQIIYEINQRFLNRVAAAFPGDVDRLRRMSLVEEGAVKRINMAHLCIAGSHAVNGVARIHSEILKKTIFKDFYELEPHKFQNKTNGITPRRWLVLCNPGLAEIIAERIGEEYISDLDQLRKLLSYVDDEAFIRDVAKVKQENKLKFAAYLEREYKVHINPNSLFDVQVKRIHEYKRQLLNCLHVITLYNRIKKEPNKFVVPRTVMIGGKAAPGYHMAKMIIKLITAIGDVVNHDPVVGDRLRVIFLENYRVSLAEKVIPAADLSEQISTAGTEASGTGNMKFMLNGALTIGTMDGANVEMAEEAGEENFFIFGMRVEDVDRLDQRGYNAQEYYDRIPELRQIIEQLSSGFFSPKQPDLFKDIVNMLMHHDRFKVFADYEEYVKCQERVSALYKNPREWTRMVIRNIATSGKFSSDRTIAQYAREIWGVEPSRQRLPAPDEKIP
Description: Inhibition of rabbit skeletal muscle glycogen phosphorylase b

IC50 | SMILES
25.7 µM | CC[C@H]1O[C@@H](NC(=S)N/N=C/c2ccc([N+](=O)[O-])cc2)[C@H](O)[C@@H](O)[C@@H]1O
93.2 µM | CC[C@H]1O[C@@H](NC(=S)N/N=C/c2ccc(Br)cc2)[C@H](O)[C@@H](O)[C@@H]1O
340 µM | CC[C@H]1O[C@@H](NC(=S)N/N=C/c2ccc(O)cc2)[C@H](O)[C@@H](O)[C@@H]1O
406 µM | CC[C@H]1O[C@@H](NC(=S)N/N=C/c2ccc(OC)cc2)[C@H](O)[C@@H](O)[C@@H]1O
192 µM | CC[C@H]1O[C@@H](NC(=S)N/N=C/c2ccc(C)cc2)[C@H](O)[C@@H](O)[C@@H]1O
524 µM | CC[C@H]1O[C@@H](NC(=S)N/N=C/c2ccc(C(F)(F)F)cc2)[C@H](O)[C@@H](O)[C@@H]1O
200 µM | CC[C@H]1O[C@@H](NC(=S)N/N=C/c2ccncc2)[C@H](O)[C@@H](O)[C@@H]1O
23.2 µM | CC[C@H]1O[C@@H](NC(=S)N/N=C/c2cccc(Cl)c2)[C@H](O)[C@@H](O)[C@@H]1O
180 µM | CC[C@H]1O[C@@H](NC(=S)N/N=C/c2cccc(O)c2)[C@H](O)[C@@H](O)[C@@H]1O
484 µM | CC[C@H]1O[C@@H](NC(=S)N/N=C/c2ccccc2[N+](=O)[O-])[C@H](O)[C@@H](O)[C@@H]1O
370 µM | CC[C@H]1O[C@@H](NC(=S)N/N=C/c2ccccc2Cl)[C@H](O)[C@@H](O)[C@@H]1O
26.6 µM | CC[C@H]1O[C@@H](NC(=S)N/N=C/c2ccccc2O)[C@H](O)[C@@H](O)[C@@H]1O
